This note sets out measurements from patent US4618605A, “Process for the production of β-elemonic acid and pharmaceutical preparations containing said acid” (priority 1983, dated 1986).

Like-named read-outs stand apart in the source and are kept apart here.

Broadly, the ED50 is the dose at which the effect has come halfway, by size or by number of responders.

One data set deals with adrenal gland. Put plainly: adrenal gland weights at termination of the adjuvant arthritis (17-day administration). The class given is in vivo, Wistar rats. The settings on record: 17-day prophylactic administration. The method, then:
(§1) Ten Wistar rats weighing from 120-150 g were used for each dose. The same number of animals served as a control. Arthritis was induced with 0.5 ml Freud's adjuvant, by subplantar injection. The test lasted 17 days. At the beginning of the test the paw volume of the non-injected hind paw was determined and this was used as a starting value. Further volume measurements were carried out on the 14th and 17th days of the test. For the result the difference between the starting and finishing volumes of the paw, both of the test group and of the control group, was obtained and the inhibition expressed as a percentage. With daily administration from the time of induction of arthritis onwards (prophylactic application) the following inhibition values (%) were obtained: […]

Another data set deals with CVF paw edema. Put plainly: rat paw edema induced by cobra venom factor (CVF). In kind it is in vivo. The settings on record: for Inhibition effect (%): rat, after three hours, vs control group; for ED30: Rattus norvegicus, po, 3 h, read-out: ED30 CVF edema. As to the method: 2. As a further experiment for testing the antiphlogistic effectiveness there was used rat paw edema induced by means of cobra venom factor (CVF). Since CVF produces inflammation by way of activation of the complementary system, inhibiting substances could open up a new kind of working principle for application in inflammatory illnesses.
Edema was provoked by subplantar injection of CVF (10 units in 1 ml NaCl solution 0.9%) in an amount of 0.1 ml of solution per paw, into one hind paw of each of a number of rats weighing from 120-160 g. After administration of the test substance in a volume of 10 ml/kg body weight the volume of the paw was determined in an overflow device. After three hours the final value was determined. For each dose the test was carried out with five test and five control animals of one sex, and repeated with the same number of animals of the opposite sex. The result was expressed as percentage inhibition of the edema compared with the control group.

The test system of a further data set is rats. Put plainly: dose-range study on rats, daily application for 14 days. The settings on record: daily for 14 days, 681.0 and 1,000.0 mg/kg body weight. The class given is in vivo, rat.
A short description of data set [1]: acute peroral toxicity in the mouse. To be noted: in vivo. As to the method:
Determination of toxicity of β-elemonic acid was carried out on the mouse and the rat. Acute peroral toxicity in the mouse: 4.640 mg/kg.

The next data set deals with young rats. Put plainly: comparative side-effect investigation with prednisolone on young rats, 8 days. In kind it is in vivo, rat. Further details: key: 0: no effect; (-): weak inhibition; -: definite inhibition; ---: very strong inhibition. The method, then:
β-Elemonic acid was compared with prednisolone for determining side-effects. Known antiphlogistic substances can cause undesired side-effects, some of which arise even at therapeutic doses. For this reason a comparative investigation of β-elemonic acid with prednisolone was undertaken (H. J. Lee, M. R. I. Soliman in Science 215 989-991, 1982). Carried out on young rats, the duration of application was 8 days. β-Elemonic acid was administered orally up to a dosage of 316 mg/kg body weight, and prednisolone intramuscularly up to a dosage of 5 mg/kg body weight.

Data set [2] has as its system adjuvant arthritis. Put plainly: adjuvant arthritis test, therapeutic application beginning ten days after induction. The class given is in vivo, Wistar rats. The settings on record: for inhibition values (%): therapeutic.
The next data set has as its system stomach mucosa. Kind of data set: induction of stomach ulcers (acute stomach mucous tolerability). In kind it is in vivo, Wistar rats. The settings on record: for Effect (ulcer induction): single administration, after 3.5 hours; for Threshold dose Acute stomach mucous tolerability: p.o. An excerpt:
The most frequent side effect in known anti-rheumatics is poor gastrointestinal tolerance with ulcer induction. For this reason β-elemonic acid was examined for the induction of ulcers. The determination of ulcer formation was made according to W. J. R. Whittle, Brit. J. Pharmacology, 1975, Vol. 55, pp. 242-243; L. Mariani, Europ. J. Toxicol. Eviron., 1975, Vol. 8, pp. 335-39; and R. Menguy and L. Desbaillets, Proc. Soc. Bio., Vol. 125, p. 1108. In the tests, for each dose and control ten male Wistar rats (120-150 g, kept fasting for 16 hours) were used. The provocation of bleeding stomach ulcer took place by oral application of the active ingredient. The animals were sacrificed after 3.5 hours, the stomach removed, opened along the larger curvature and stretched on a foam polystyrene plate. The median ulcer factor of the test group and the control group was determined.

In the next data set the test system is carrageenin paw edema. Put plainly: carrageenin rat paw edema test of Hillebrecht (antiphlogistic effectiveness). To be noted: for Inhibiting effect (%): rat, after three hours, vs control group. The class given is in vivo. As to the method: 1. The antiphlogistic effectiveness was determined by the rat paw edema test of Hillebrecht (J. Hillebrecht, Arzneim, Forsch. 1954, Vol. 4, p. 607). In this test, rats weighing from 120 g-160 g were given a subplantar dose of carrageenin (0.5% in 0.9% NaCl solution) in an amount of 0.1 ml of solution per paw, using one hind paw of each rat, to produce edema. After administration of the test substance, which as a rule should not exceed a volume of 10 ml/kg body weight, the volume of the paw was determined in an overflow device. After three hours the final value was determined. For each dosage level the experiment was performed with five test and five control animals of one sex and repeated with the same number of animals of the opposite sex. The result is expressed as the percentage inhibition of edema as compared with the control group.

Data set [3] in a line: therapeutic range (therapeutic indices). The class given is in vivo. To be noted: for selectivity ratio: in vivo, po. An excerpt: An assessment of the effectiveness of elemonic acid was compared with known substances. A quantitative assessment of β-elemonic acid in comparison with known antiphlogistic substances was made possible by determining the therapeutic ranges, i.e. by the safety with which an active ingredient can be used. […] The therapeutic range is given (1) by the ratio between the LD50 and the ED30 in the CVF paw oedema and (2) by the ratio between the dose threshold value of stomach intolerance and the ED50 in the arthritis model. The ED30 and the ED50 values were determined with the aid of a regression line: […]

Data set [4] concerns adjuvant arthritis. Kind of data set: adjuvant arthritis test of Pearson, prophylactic application. In kind it is in vivo, Wistar rats. To be noted: for inhibition values (%): prophylactic; for ED50: Rattus norvegicus, po, 408 h, read-out: ED50 Adjuvant arthritis prophyl.; for antiphlogistic activity (in words): appraisal from ED50 values in the arthritis test. The method, then:
3. The adjuvant arthritis test of C. M. Pearson, Proc. Soc. Exp. Biol. 91, 95-101 (1956) was carried out as a further relevant animal experiment for the examination of anti-rheumatic substances.
as §1

Setting [5] is: po, Table 9, read-out: LD50 Mouse.
The mark [6] stands for this setting: LD50 / ED30 in the CVF paw oedema, read-out: Therapeutic index 1 (3./1.).
[7] abbreviates: rat, dose threshold value of stomach intolerance / ED50 in the arthritis model, read-out: Therapeutic index 2 (4./1.).

`CC(C)=CCC[C@H](C(=O)O)[C@@H]1CC[C@]2(C)C3=C(CC[C@@]12C)[C@@]1(C)CCC(=O)C(C)(C)[C@@H]1CC3` [β-Elemonic acid, 13α, 14β, 17α, 20S,-3-Oxo-lanosta-8,24-dien-21-carboxylic acid]: the adrenal gland weights entry in the data set on adrenal gland is “inside the normal limits”. In addition, the “Inhibition effect (%)” value was -24% in the data set on CVF paw edema (1 mg/kg p.o.), -32% in the data set with CVF paw edema (10 mg/kg p.o.) and -49% in the data set with CVF paw edema (100 mg/kg p.o.). The ED30 in the data set with CVF paw edema was 3.98 mg/kg. Moreover, the aggravating side-effects result with rats is on record as “no occurrences of aggravating side-effects”. Further, the LD50 in data set [1] (setting [5]) came to 4640 mg/kg; in [1] (po, peroral, read-out: Acute peroral toxicity), 4.64 mg/kg. In addition, the “Blood picture Leucocytes” value in the data set with young rats (100 mg/kg orally) and in the data set with young rats (316 mg/kg orally) was 0 each time. For the same molecule, the “Blood picture Lymphocytes” value with young rats (100 mg/kg orally) and in the data set with young rats (316 mg/kg orally) was 0 each time. The Body weight development result in the data set on young rats (100 mg/kg orally) and in the data set with young rats (316 mg/kg orally) was “(-)” in each case. Besides, the Liver weights in the data set on young rats (100 mg/kg orally) and with young rats (316 mg/kg orally) was 0 each time. In addition, the Thymus weight in the data set on young rats (100 mg/kg orally) is on record as 0; in the data set with young rats (316 mg/kg orally) it was “(-)”. The “inhibition values (%)” value with adjuvant arthritis [2] (14th day p.i., 1 mg/kg p.o.) was “+36%”; in the data set with adjuvant arthritis [2] (14th day p.i., 10 mg/kg p.o.) it was -13%; with adjuvant arthritis [2] (14th day p.i., 100 mg/kg p.o.), -38%; in the data set with adjuvant arthritis [2] (17th day p.i., 1 mg/kg p.o.), -31%; in the data set with adjuvant arthritis [2] (17th day p.i., 10 mg/kg p.o.) it was -42%; in the data set on adjuvant arthritis [2] (17th day p.i., 100 mg/kg p.o.), -81%. Also, the “inhibition values (%)” value with adjuvant arthritis [4] (14th day p.i., 1 mg/kg p.o.) is -55%; with adjuvant arthritis [4] (14th day p.i., 10 mg/kg p.o.), -62%; in the data set with adjuvant arthritis [4] (14th day p.i., 100 mg/kg p.o.), -165%; in the data set on adjuvant arthritis [4] (17th day p.i., 1 mg/kg p.o.), -38%; with adjuvant arthritis [4] (17th day p.i., 10 mg/kg p.o.), -47%; with adjuvant arthritis [4] (17th day p.i., 100 mg/kg p.o.) it was -92%. In addition, the “inhibition values (in words)” value with adjuvant arthritis [2] (therapeutic application beginning ten days after induction) was “pronounced inhibition values”. Further, the “Effect (ulcer induction)” value in the data set on stomach mucosa (10 mg/kg p.o.), in the data set on stomach mucosa (100 mg/kg p.o.) and in the data set on stomach mucosa (316 mg/kg p.o.) was 0 each time. Also, the “Threshold dose Acute stomach mucous tolerability” value in the data set on stomach mucosa stood at 316.00 mg/kg. The “Inhibiting effect (%)” value is given as -7% with carrageenin paw edema (1 mg/kg p.o.), -21% with carrageenin paw edema (10 mg/kg p.o.) and -33% with carrageenin paw edema (100 mg/kg p.o.). Moreover, the selectivity ratio in data set [3] (setting [6]) came to 1160; in data set [3] (setting [7]), 68. The “Therapeutic indices 1 and 2 compared with comparison substances (in words)” value in [3] (vs phenylbutazone and indomethacin) was “several times higher”. Also, the ED50 in the data set on adjuvant arthritis [4] was 4.64 mg/kg.

On to `C[C@]12C=CC(=O)C=C1CC[C@@H]1[C@@H]2[C@@H](O)C[C@@]2(C)[C@H]1CC[C@]2(O)C(=O)CO` [Prednisolone, reference compound], for which, in the data set on young rats (5 mg/kg intramuscularly), the “Blood picture Leucocytes” value is given as “-”, the “Blood picture Lymphocytes” value is recorded as “-”, the Body weight development result was “-” and the Liver weights amounted to 0. The Thymus weight result in the data set on young rats (5 mg/kg intramuscularly) is on record as “---”. Further, in the data set on young rats (2,5 mg/kg intramuscularly), the “Blood picture Leucocytes” value is listed as 0, the “Blood picture Lymphocytes” value is reported as “(-)”, the Body weight development result is recorded as “-” and the Liver weights is 0. Moreover, the Thymus weight result with young rats (2,5 mg/kg intramuscularly) was “---”.

As to `COc1ccc2c(c1)c(CC(=O)O)c(C)n2C(=O)c1ccc(Cl)cc1` [Indomethacin, reference compound], the ED30 with CVF paw edema stood at 4.58 mg/kg. In addition, the LD50 in data set [1] (setting [5]) is 40 mg/kg. The “Threshold dose Acute stomach mucous tolerability” value with stomach mucosa was 5.62 mg/kg. In data set [3] (setting [6]), the selectivity ratio stood at 8.73. In addition, the selectivity ratio in data set [3] (setting [7]) came to 21.6. Further, in the data set with adjuvant arthritis [4], the ED50 came to 0.26 mg/kg and the “antiphlogistic activity (in words)” value is given as “strongly active”.

Consider `CCCCC1C(=O)N(c2ccccc2)N(c2ccccc2)C1=O` [Phenylbutazone], for which the “Inhibition effect (%)” value in the data set with CVF paw edema (1 mg/kg p.o.) is “+10%”; in the data set on CVF paw edema (10 mg/kg p.o.), -28%; in the data set with CVF paw edema (100 mg/kg p.o.), -34%. Besides, the ED30 in the data set on CVF paw edema was 37.7 mg/kg. Also, the “inhibition of CVF edema (in words)” value with CVF paw edema (compared with β-elemonic acid) is “weaker inhibition values”. Moreover, the LD50 in data set [1] (oral, comparison, read-out: LD50) was determined as 465 mg/kg. Moreover, the “Inhibiting effect (%)” value in the data set on carrageenin paw edema (100 mg/kg p.o.) is given as -41%. Besides, in the data set on carrageenin paw edema (carrageenin paw edema test in rats), the “reduction of edema (in words)” value is listed as “a reduction of edema only at a fairly high dosage level”. The “inhibition values (%)” value in the data set on adjuvant arthritis [4] (14th day p.i., 10 mg/kg p.o.) is -42%; in the data set with adjuvant arthritis [4] (14th day p.i., 31,6 mg/kg p.o.), -57%; in the data set with adjuvant arthritis [4] (14th day p.i., 82,5 mg/kg p.o.) it was -58%; in the data set with adjuvant arthritis [4] (17th day p.i., 10 mg/kg p.o.), -31%; in the data set with adjuvant arthritis [4] (17th day p.i., 31,6 mg/kg p.o.), -51%; with adjuvant arthritis [4] (17th day p.i., 82,5 mg/kg p.o.) it was -43%. Besides, the ED50 in the data set with adjuvant arthritis [4] (p.o., regression line) was determined as 47.5 mg/kg. Further, the “antiphlogistic activity (in words)” value in the data set on adjuvant arthritis [4] was “weakly active”.
